Source: patent US20190307141A1, “LACTIC ACID BACTERIAL FERMENTATION PROMOTING AGENT” (MEIJI CO., LTD., priority 2016, published 2019)

Assays:
Type in all cases: cell-based
[1] = tested on: Lactobacillus acidophilus OLL1836; assay: Fermentation promoting effect in UHT sterilized milk with casein-hydrolyzed peptide, pH over time; conditions: adenylic acid 0.05 mmol/kg or 1:1 mixture 0.025% (wt/wt); UHT sterilized milk with 0.2% casein-hydrolyzed peptide, 43° C.
[2] = tested on: Leuconostoc lactis OLS5167; assay: Fermentation promoting effect in UHT sterilized milk, pH over time; conditions: adenylic acid 0.05 mmol/kg or 1:1 mixture 0.025% (wt/wt); UHT sterilized milk with 0.2% casein-hydrolyzed peptide, 43° C.
Description: (§1) The above test substances were each added to UHT sterilized milk (cow milk sterilized by a UHT method (ultrahigh temperature sterilization method); sterilized at 130° C. for 2 seconds), and warmed to 43° C. […] To the warmed UHT sterilized milk, Streptococcus thermophilus OLS3059 strain (accession number FERM BP-10740) was inoculated as a starter in an inoculation amount of 1% (vol/wt) (corresponding to a bacterial cell concentration of 1 to 2×10^7 cfu/mL), and the fermentation was started at 43° C. As a control, the fermentation using UHT sterilized milk without the above test substances was also carried out. Herein, S. thermophilus OLS3059 strain was cultured using MRS (Difco) at 37° C. for 16 hours for preparation of the bacterial cells to be used in the fermentation below. After culturing using MRS, the bacterial cells were collected by centrifugation (8,000 g for 5 minutes), and then suspended into 0.8% sodium chloride solution. The resulting bacterial cell suspension (bacterial cell concentration of 1 to 2×10^9 cfu/mL) was used as a starter. In the following Examples using S. thermophilus, a S. thermophilus bacterial suspension prepared according to the same method as the present Example was used as a starter, unless otherwise stated.
(§2) The pH of the fermentation liquid was measured over time. A decrease in the pH in the lactic acid bacteria culture medium and the fermentation liquid indicates an increase in the amount of lactic acid production associated with the lactic acid bacterial fermentation and is used as an indicator of the progress degree of the lactic acid bacterial fermentation.
(§3) Starters (bacterial suspensions) were prepared from the respective bacterial strains by the same method as described in Example 1. The starter was inoculated in an inoculation amount of 1% (vol/wt). Except for these points, the fermentation promoting effect was evaluated in the same manner as in Example 1.
(§4) The preparation method and the inoculation amount (%) of the starter are as described in Example 1. Except for these points, the fermentation promoting effect was evaluated in the same manner as in Example 1.

[3] = tested on: Lactobacillus delbrueckii subsp. bulgaricus OLL1073R-1; assay: as above; conditions: adenylic acid 0.05 mmol/kg or 1:1 mixture 0.025% (wt/wt); UHT sterilized milk with 0.2% casein-hydrolyzed peptide, 43° C.
Description: as §1, §2, §3, §4

[4] = tested on: Lactobacillus helveticus OLL1482; assay: as above; conditions: adenylic acid 0.05 mmol/kg or 1:1 mixture 0.025% (wt/wt); UHT sterilized milk with 0.2% casein-hydrolyzed peptide, 43° C.
Description: as §1, §2, §3, §4

[5] = tested on: Lactobacillus gasseri OLL2716; assay: as above; conditions: adenylic acid 0.05 mmol/kg or 1:1 mixture 0.025% (wt/wt); UHT sterilized milk with 0.2% casein-hydrolyzed peptide, 43° C.
Description: as §1, §2, §3, §4

[6] = tested on: Lactococcus lactis subsp. lactis OLS3445; assay: as above; conditions: adenylic acid 0.05 mmol/kg or 1:1 mixture 0.025% (wt/wt); UHT sterilized milk with 0.2% casein-hydrolyzed peptide, 43° C.
Description: as §1, §2, §3, §4

[7] = tested on: Lactobacillus johnsonii OLL2725; assay: Fermentation promoting effect in UHT sterilized milk with casein-hydrolyzed peptide, pH over time; conditions: adenylic acid 0.05 mmol/kg or 1:1 mixture 0.025% (wt/wt); UHT sterilized milk with 0.2% casein-hydrolyzed peptide, 43° C.
[8] = tested on: Streptococcus thermophilus OLS3059 strain; assay: Fermentation promoting effect in UHT sterilized milk, pH of the fermentation liquid over time; conditions: 43° C.; for fermentation promoting effect (pH of the fermentation liquid over time vs control): test substance 0.05 mmol/kg in UHT sterilized milk, starter 1% (vol/wt); for fermentation promoting effect (pH over time) of mixtures with guanosine in different mixing ratios: adenosine:guanosine 10:0, 7:3, 5:5, 3:7, inosine:guanosine 10:0, 7:3, 5:5, 4:6 (weight ratio), total 0.05 mmol/kg, UHT sterilized milk
Description: as §1
as §2, with “fermentation. […]” for “fermentation.”
In this test, a 10 mM solution of each of the test substances (purines) in 0.1N NaOH was added to UHT sterilized milk in an amount such that the concentration of the test substance in the UHT sterilized milk was 0.05 mmol/kg, whereby UHT sterilized milk supplemented with the test substance was prepared. Additionally, as a control, the fermentation using UHT sterilized milk without the test substances (purines) was also carried out.
UHT sterilized milk supplemented with adenine which is a purine base, or a derivative thereof that is adenosine, deoxyadenosine, or adenylic acid (adenosine monophosphate; AMP) added as a test substance, was warmed to 43° C., subsequently S. thermophilus OLS3059 strain was inoculated as a starter in an amount of 1% (vol/wt), and the fermentation was started at 43° C. The pH of the fermentation liquid was measured over time. […]
The fermentation promoting effect on S. thermophilus was examined by the same method as described in Example 2, except that mixtures of adenosine and guanosine in different mixing ratios or mixtures of inosine and guanosine in different mixing ratios were used as test substances.

| Compound | fermentation promoting effect (pH of the fermentation liquid over time vs control) [8] | further results |
| --- | --- | --- |
| adenylic acid [AMP] | notable fermentation promoting effects | fermentation promoting effect (pH over time vs control) [1]: shown in all the strains tested; fermentation promoting effect (pH over time vs control) [2]: shown in all the strains tested; fermentation promoting effect (pH over time vs control) [3]: shown in all the strains tested; fermentation promoting effect (pH over time vs control) [4]: shown in all the strains tested; fermentation promoting effect (pH over time vs control) [5]: shown in all the strains tested; fermentation promoting effect (pH over time vs control) [6]: shown in all the strains tested; fermentation promoting effect (pH over time vs control) [7]: shown in all the strains tested |
| Nc1nc2c(ncn2[C@@H]2O[C@H](CO)[C@@H](O)[C@H]2O)c(=O)[nH]1 [guanosine] | did not exhibit the fermentation promoting effects | fermentation promoting effect (pH over time) of mixtures with guanosine in different mixing ratios [8]: does not exhibit the fermentation promoting effect |
| Cc1c[nH]c(=O)[nH]c1=O [thymine] | did not exhibit the fermentation promoting effects |  |
| Nc1ncnc2c1ncn2[C@@H]1O[C@H](CO)[C@@H](O)[C@H]1O [adenosine] | notable fermentation promoting effects | fermentation promoting effect (pH over time) of mixtures with guanosine in different mixing ratios [8]: exhibit the fermentation promoting effect in a concentration-dependent manner |
| Nc1nc2nc[nH]c2c(=O)[nH]1 [guanine] | did not exhibit the fermentation promoting effects |  |
| OC[C@H]1O[C@@H](n2cnc3c(O)ncnc32)C[C@@H]1O [deoxyinosine] | notable fermentation promoting effects |  |
| O=c1[nH]c(=O)c2[nH]cnc2[nH]1 [xanthine] | did not exhibit the fermentation promoting effects |  |
| Cc1cn([C@H]2C[C@H](O)[C@@H](CO)O2)c(=O)[nH]c1=O [thymidine] | did not exhibit the fermentation promoting effects |  |
| Nc1ncnc2c1ncn2[C@H]1C[C@H](O)[C@@H](CO)O1 [deoxyadenosine] | notable fermentation promoting effects |  |
| O=c1[nH]cnc2nc[nH]c12 [hypoxanthine] | notable fermentation promoting effects |  |
| O=c1cc[nH]c(=O)[nH]1 [uracil] | did not exhibit the fermentation promoting effects |  |
| Nc1ccn([C@@H]2O[C@H](CO)[C@@H](O)[C@H]2O)c(=O)n1 [cytidine] | did not exhibit the fermentation promoting effects |  |
| O=c1ccn([C@@H]2O[C@H](CO)[C@@H](O)[C@H]2O)c(=O)[nH]1 [uridine] | did not exhibit the fermentation promoting effects |  |
| O=c1[nH]c(=O)c2[nH]c(=O)[nH]c2[nH]1 [uric acid] | did not exhibit the fermentation promoting effects |  |
| Nc1nc2c(ncn2[C@H]2C[C@H](O)[C@@H](CO)O2)c(=O)[nH]1 [deoxyguanosine] | did not exhibit the fermentation promoting effects |  |
| Nc1cc[nH]c(=O)n1 [cytosine] | did not exhibit the fermentation promoting effects |  |
| OC[C@H]1O[C@@H](n2cnc3c(O)ncnc32)[C@H](O)[C@@H]1O [inosine] | notable fermentation promoting effects | fermentation promoting effect (pH over time) of mixtures with guanosine in different mixing ratios [8]: exhibit the fermentation promoting effect in a concentration-dependent manner |
| Nc1ncnc2nc[nH]c12 [adenine] | notable fermentation promoting effects |  |
